One data set deals with Aspergillus fumigatus. The data set is described as follows: Antifungal activity against Aspergillus fumigatus ATCC 1028 after 24 to 168 hrs by broth microdilution assay. It is filed as functional.
Data set [1] relates to Nakaseomyces glabratus. Briefly: Antifungal activity against Candida glabrata IFRC 339 after 24 to 168 hrs by broth microdilution assay. It is filed as functional.
For data set [2], the system named is Candida albicans. The data set is described as follows: Antifungal activity against Candida albicans ATCC 18804 after 24 to 168 hrs by broth microdilution assay. It is filed as functional.
The test system of the next data set is Cryptococcus neoformans. The data set is described as follows: Antifungal activity against Cryptococcus neoformans IFRC 192 after 24 to 168 hrs by broth microdilution assay. It is filed as functional.
The subject of data set [3] is Candida albicans. Briefly: Antifungal activity against Candida albicans PTCC 6027 after 24 to 168 hrs by broth microdilution assay. It is filed as functional.
Another data set concerns HepG2. The data set is described as follows: Cytotoxicity against human HepG2 cells after 2 days by MTT assay. It is filed as cell-based. Particulars: HepG2, 48 h.
Data set [4] is described as follows: Stability of the compound in deuterated DMSO at RT after 2 weeks by 1H-NMR spectroscopy. It is filed as physicochemical. Particulars: 336 h.
A short description of data set [5]: Stability of the compound in PBS at 0.15 to 6 ug/ml at pH 5.8 to 8 at RT after 2 weeks by UV spectrophotometry. It is filed as physicochemical. Particulars: buffer, pH 5.8, 336 h.
Data set [6] deals with Candida albicans. The data set is described as follows: Ratio of fluconazole MIC to compound MIC for Candida albicans PTCC 6027. It is filed as functional.
The test system of data set [7] is Nakaseomyces glabratus. Briefly: Ratio of fluconazole MIC to compound MIC for Candida glabrata IFRC 339. It counts as functional.
The subject of data set [8] is Candida albicans. The data set is described as follows: Ratio of fluconazole MIC to compound MIC for Candida albicans ATCC 18804. It counts as functional.

In brackets after ≈: the same amount, converted by molar mass.

Consider `OC(CSc1nnc(-c2ccccc2)[nH]1)(Cn1cncn1)c1ccc(F)cc1F` (centres undefined), for which the MIC is over 128 µg/mL in the data set on Aspergillus fumigatus; 128 µg/mL (≈ 309 µM) in the data set with Nakaseomyces glabratus [1]; 0.5 µg/mL (≈ 1.21 µM) in the data set on Candida albicans [2]; over 128 µg/mL against Cryptococcus neoformans; 8 µg/mL (≈ 19.3 µM) against Candida albicans [3].
For the compound `OC(Cn1cncn1)(Cn1cncn1)c1ccc(F)cc1F` [FLUCONAZOLE], the MIC against Aspergillus fumigatus was 8 µg/mL (≈ 26.1 µM); in the data set on Nakaseomyces glabratus [1], 64 µg/mL (≈ 209 µM); against Candida albicans [2], 2 µg/mL (≈ 6.53 µM); in the data set with Cryptococcus neoformans it was 4 µg/mL (≈ 13.1 µM); in the data set on Candida albicans [3], 0.25 µg/mL (≈ 0.816 µM). Besides, the IC50 in the data set on HepG2 is over 250 µg/mL.
As to `COc1ccc(-c2nnc(SCC(O)(Cn3cncn3)c3ccc(F)cc3F)[nH]2)cc1` (centres undefined), the MIC against Aspergillus fumigatus is over 128 µg/mL; with Nakaseomyces glabratus [1], 4 µg/mL (≈ 9 µM); in the data set on Candida albicans [2] it was 2 µg/mL (≈ 4.5 µM); in the data set with Cryptococcus neoformans, over 128 µg/mL; in the data set with Candida albicans [3], 4 µg/mL (≈ 9 µM).
On to `OC(CSc1nnc(-c2cccc(Br)c2)[nH]1)(Cn1cncn1)c1ccc(F)cc1F` (centres undefined), for which the MIC is over 128 µg/mL with Aspergillus fumigatus; 128 µg/mL (≈ 259 µM) against Nakaseomyces glabratus [1]; 8 µg/mL (≈ 16.2 µM) in the data set with Candida albicans [2]; over 128 µg/mL in the data set with Cryptococcus neoformans; 8 µg/mL (≈ 16.2 µM) against Candida albicans [3].
Take `OC(CSc1nnc(-c2ccc(F)cc2)[nH]1)(Cn1cncn1)c1ccc(Cl)cc1Cl` (centres undefined): the MIC in the data set with Aspergillus fumigatus is over 128 µg/mL; with Nakaseomyces glabratus [1], 128 µg/mL (≈ 275 µM); with Candida albicans [2], 0.5 µg/mL (≈ 1.07 µM); with Cryptococcus neoformans, over 128 µg/mL; with Candida albicans [3], 0.125 µg/mL (≈ 0.269 µM).
For `COc1ccc(-c2nnc(SCC(O)(Cn3cncn3)c3ccc(Cl)cc3Cl)[nH]2)cc1` (centres undefined), the MIC with Aspergillus fumigatus is over 128 µg/mL; against Nakaseomyces glabratus [1], 128 µg/mL (≈ 268 µM); against Candida albicans [2], 32 µg/mL (≈ 67 µM); against Cryptococcus neoformans it was over 128 µg/mL; with Candida albicans [3] it was over 128 µg/mL.
In the case of `OC(CSc1nnc(-c2ccncc2)[nH]1)(Cn1cncn1)c1ccc(Cl)cc1Cl` (centres undefined), the MIC was over 128 µg/mL against Aspergillus fumigatus; 128 µg/mL (≈ 285 µM) in the data set on Nakaseomyces glabratus [1]; 8 µg/mL (≈ 17.8 µM) with Candida albicans [2]; over 128 µg/mL in the data set on Cryptococcus neoformans; 4 µg/mL (≈ 8.92 µM) in the data set on Candida albicans [3].
Turning to `OC(CSc1nnc(-c2ccc(Cl)cc2)[nH]1)(Cn1cncn1)c1ccc(Cl)cc1Cl` (centres undefined), the MIC was over 128 µg/mL against Aspergillus fumigatus; 128 µg/mL (≈ 266 µM) in the data set on Nakaseomyces glabratus [1]; 0.5 µg/mL (≈ 1.04 µM) against Candida albicans [2]; over 128 µg/mL against Cryptococcus neoformans; 0.125 µg/mL (≈ 0.259 µM) against Candida albicans [3].
Regarding `OC(CSc1nnc(-c2ccc(Cl)cc2)[nH]1)(Cn1cncn1)c1ccc(F)cc1F` (centres undefined), the MIC in the data set with Aspergillus fumigatus is over 128 µg/mL; in the data set on Nakaseomyces glabratus [1], 128 µg/mL (≈ 285 µM); in the data set with Candida albicans [2], 0.5 µg/mL (≈ 1.11 µM); against Cryptococcus neoformans it was over 128 µg/mL; with Candida albicans [3], 1 µg/mL (≈ 2.23 µM).
In the case of `OC(CSc1nnc(-c2ccccc2)[nH]1)(Cn1cncn1)c1ccc(Cl)cc1Cl` (centres undefined), the MIC was over 128 µg/mL against Aspergillus fumigatus; 128 µg/mL (≈ 286 µM) in the data set on Nakaseomyces glabratus [1]; 4 µg/mL (≈ 8.94 µM) in the data set with Candida albicans [2]; over 128 µg/mL in the data set with Cryptococcus neoformans; 1 µg/mL (≈ 2.24 µM) in the data set on Candida albicans [3].
`Oc1ccc(-c2nnc(SCC(O)(Cn3cncn3)c3ccc(Cl)cc3Cl)[nH]2)cc1` (centres undefined): the MIC in the data set with Aspergillus fumigatus was over 128 µg/mL; against Nakaseomyces glabratus [1], 128 µg/mL (≈ 276 µM); against Candida albicans [2], 16 µg/mL (≈ 34.5 µM); with Cryptococcus neoformans, 128 µg/mL (≈ 276 µM); against Candida albicans [3] it was 16 µg/mL (≈ 34.5 µM).
On to `Nn1c(SCC(O)(Cn2cncn2)c2ccc(Cl)cc2Cl)nnc1-c1ccc(Cl)cc1Cl` (centres undefined), for which the MIC with Candida albicans [3] was 8 µg/mL (≈ 15.1 µM).
For `Nn1c(SCC(O)(Cn2cncn2)c2ccc(F)cc2F)nnc1-c1ccc(Cl)cc1Cl` (centres undefined), in the data set on Candida albicans [3], the minimal inhibitory concentration (MIC) was determined as 16 µg/mL (≈ 32.1 µM).
For `Cc1ccc(-c2nnc(SCC(O)(Cn3cncn3)c3ccc(Cl)cc3Cl)[nH]2)cc1` (centres undefined), the MIC with Aspergillus fumigatus was over 128 µg/mL; against Nakaseomyces glabratus [1] it was 128 µg/mL (≈ 277 µM); with Candida albicans [2], 1 µg/mL (≈ 2.17 µM); against Cryptococcus neoformans, 128 µg/mL (≈ 277 µM); against Candida albicans [3] it was 0.125 µg/mL (≈ 0.271 µM).
Turning to `OC(CSc1nnc(-c2ccc(F)cc2)[nH]1)(Cn1cncn1)c1ccc(F)cc1F` (centres undefined), the MIC in the data set on Aspergillus fumigatus is over 128 µg/mL; in the data set on Nakaseomyces glabratus [1], 4 µg/mL (≈ 9.25 µM); against Candida albicans [2], 8 µg/mL (≈ 18.5 µM); in the data set on Cryptococcus neoformans, over 128 µg/mL; in the data set on Candida albicans [3], 4 µg/mL (≈ 9.25 µM).
Take `OC(CSc1nnc(-c2ccc(Cl)cc2Cl)[nH]1)(Cn1cncn1)c1ccc(F)cc1F` (centres undefined): the MIC in the data set on Aspergillus fumigatus was over 128 µg/mL; against Nakaseomyces glabratus [1] it was 0.25 µg/mL (≈ 0.517 µM); against Candida albicans [2] it was 0.5 µg/mL (≈ 1.03 µM); against Cryptococcus neoformans, 64 µg/mL (≈ 132 µM); in the data set with Candida albicans [3] it was 0.03 µg/mL (≈ 0.0621 µM). Besides, the IC50 in the data set on HepG2 was over 250 µg/mL. For the same compound, the Stability entry in [4] and in [5] was “Stable” throughout. Besides, the Ratio in the data set on Candida albicans [6] was 4; in the data set on Nakaseomyces glabratus [7] it was 4; in the data set with Candida albicans [8], 8.
On to `OC(CSc1nnc(-c2cccc(Br)c2)[nH]1)(Cn1cncn1)c1ccc(Cl)cc1Cl` (centres undefined), for which the MIC in the data set on Aspergillus fumigatus is over 128 µg/mL; in the data set with Nakaseomyces glabratus [1], 128 µg/mL (≈ 243 µM); with Candida albicans [2], 0.25 µg/mL (≈ 0.475 µM); in the data set on Cryptococcus neoformans, 4 µg/mL (≈ 7.6 µM); in the data set with Candida albicans [3] it was 0.06 µg/mL (≈ 0.114 µM). The Ratio with Candida albicans [8] is on record as 8.
Turning to `OC(CSc1nnc(-c2ccc(Cl)cc2Cl)[nH]1)(Cn1cncn1)c1ccc(Cl)cc1Cl` (centres undefined), the MIC with Aspergillus fumigatus is over 128 µg/mL; in the data set with Nakaseomyces glabratus [1], 0.25 µg/mL (≈ 0.484 µM); in the data set with Candida albicans [2], 0.5 µg/mL (≈ 0.969 µM); with Cryptococcus neoformans, 32 µg/mL (≈ 62 µM); in the data set with Candida albicans [3], under 0.01 µg/mL. For the same compound, in the data set on HepG2, inhibition was half-maximal at 97.1 µg/mL (≈ 188 µM) (IC50). Besides, the figures for the Ratio in the data set on Candida albicans [6], in the data set with Nakaseomyces glabratus [7] and with Candida albicans [8] were 4, 4 and 25, respectively.
With `Cc1ccc(-c2nnc(SCC(O)(Cn3cncn3)c3ccc(F)cc3F)[nH]2)cc1` (centres undefined), the MIC is over 128 µg/mL with Aspergillus fumigatus; 128 µg/mL (≈ 299 µM) against Nakaseomyces glabratus [1]; 2 µg/mL (≈ 4.67 µM) against Candida albicans [2]; over 128 µg/mL in the data set with Cryptococcus neoformans; 2 µg/mL (≈ 4.67 µM) with Candida albicans [3].
Take `Oc1ccc(-c2nnc(SCC(O)(Cn3cncn3)c3ccc(F)cc3F)[nH]2)cc1` (centres undefined): the minimal inhibitory concentration (MIC) is over 128 µg/mL with Aspergillus fumigatus; 128 µg/mL (≈ 297 µM) in the data set with Nakaseomyces glabratus [1]; over 128 µg/mL with Candida albicans [2]; over 128 µg/mL against Cryptococcus neoformans; over 128 µg/mL in the data set with Candida albicans [3].
With `OC(CSc1nnc(-c2ccncc2)[nH]1)(Cn1cncn1)c1ccc(F)cc1F` (centres undefined), the MIC is over 128 µg/mL against Aspergillus fumigatus; 128 µg/mL (≈ 308 µM) in the data set with Nakaseomyces glabratus [1]; 64 µg/mL (≈ 154 µM) with Candida albicans [2]; over 128 µg/mL in the data set with Cryptococcus neoformans; 64 µg/mL (≈ 154 µM) against Candida albicans [3].

These data come from ChEMBL document CHEMBL3400134, “Synthesis and biological evaluation of fluconazole analogs with triazole-modified scaffold as potent antifungal agents” (Bioorg Med Chem, 2015).
